Molecular target: hFXR (Homo sapiens (Human), UniProt Q96RI1)
Assay: In Vitro FXR Assay (TK)
Format: cell-based
Conditions: CV-1 cells transfected with hFXR, hRXR, TK-ECRE-luc and pCMX-YFP; incubated 18 hrs; luminescence; maximum efficacy <25% of the Fexarmine control classified as '+'
Procedure: Example B-1: In Vitro FXR Assay (TK)
CV-1 cells were seeded at a density of 2,000,000 cells in a T175 flask with DMEM+10% charcoal double-stripped FBS and incubated at 37° C. in 5% CO2 for 18 h (O/N).
After 18 h of incubation, the medium in the T175 flask was changed with fresh DMEM+10% charcoal super-stripped serum. In a polypropylene tube, 2500 μL OptiMEM (Life Technologies, Cat #31985-062) was combined with expression plasmids for hFXR, hRXR, TK-ECRE-luc and pCMX-YFP. The tube was then briefly vortexed and incubated at room temperature for 5 minutes. Transfection reagent (X-tremeGENE HP from Roche, Cat #06 366 236 001) was added to the OptiMEM/plasmid mixture vortexed and incubated at room temperature for 20 minutes. Following incubation, the transfection reagent/DNA mixture complex was added to cells in the T175 flask and the cells were incubated at 37° C. in 5% CO2 for 18 h (O/N).
Compounds were serially diluted in DMSO and added to transfected CV-1 cells. The cells were then incubated for 18 hrs. The next day cells were lysed and examined for luminescence.

hFXR, sequence (Q96RI1 whole entry): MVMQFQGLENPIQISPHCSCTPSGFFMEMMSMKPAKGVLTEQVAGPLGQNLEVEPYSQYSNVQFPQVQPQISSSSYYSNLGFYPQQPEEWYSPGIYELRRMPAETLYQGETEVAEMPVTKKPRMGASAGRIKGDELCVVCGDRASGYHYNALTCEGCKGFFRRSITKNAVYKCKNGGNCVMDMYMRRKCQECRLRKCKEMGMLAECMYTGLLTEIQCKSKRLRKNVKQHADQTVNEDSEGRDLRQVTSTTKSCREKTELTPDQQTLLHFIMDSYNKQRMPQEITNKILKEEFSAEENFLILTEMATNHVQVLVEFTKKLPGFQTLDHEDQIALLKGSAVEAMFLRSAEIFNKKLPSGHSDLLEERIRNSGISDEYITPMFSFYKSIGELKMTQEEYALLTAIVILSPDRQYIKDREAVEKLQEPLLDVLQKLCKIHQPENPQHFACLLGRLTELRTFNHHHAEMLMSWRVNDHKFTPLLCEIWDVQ
hFXR, sequence (P19793 whole entry partner): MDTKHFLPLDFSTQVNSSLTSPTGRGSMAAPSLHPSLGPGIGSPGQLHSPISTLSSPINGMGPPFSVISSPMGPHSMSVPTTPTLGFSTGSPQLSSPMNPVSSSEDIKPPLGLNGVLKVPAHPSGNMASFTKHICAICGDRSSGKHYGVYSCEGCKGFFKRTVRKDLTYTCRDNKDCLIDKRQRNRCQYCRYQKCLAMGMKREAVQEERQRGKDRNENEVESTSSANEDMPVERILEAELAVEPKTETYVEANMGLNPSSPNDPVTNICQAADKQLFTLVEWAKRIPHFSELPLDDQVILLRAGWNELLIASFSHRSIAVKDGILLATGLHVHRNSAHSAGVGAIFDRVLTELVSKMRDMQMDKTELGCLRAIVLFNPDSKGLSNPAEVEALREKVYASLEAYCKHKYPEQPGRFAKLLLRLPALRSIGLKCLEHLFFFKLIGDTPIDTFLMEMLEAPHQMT

SMILES	EC50 [nM]
COc1ccc([C@H]2CC[C@H](CN(c3cccc(-n4ccc(C)n4)c3)C(=O)[C@H]3CC[C@H](O)CC3)CC2)cc1C [Compound 5.01, trans-4-Hydroxy-N-((trans-4-(4-methoxy-3-methylphenyl)cyclohexyl)methyl)-N-(3-(3-methyl-1H-pyrazol-1-yl)phenyl)cyclohexanecarboxamide]	250 to 1000
COc1ccc([C@H]2CC[C@H](CN(c3cccc(-c4cnn(C(C)C)c4)c3)C(=O)[C@H]3CC[C@H](O)CC3)CC2)nc1C [Compound 5.07, trans-4-Hydroxy-N-(3-(1-isopropyl-1H-pyrazol-4-yl)phenyl)-N-((trans-4-(5-methoxy-6-methylpyridin-2-yl)cyclohexyl)methyl)cyclohexanecarboxamide]	≤ 250
COc1ccc([C@H]2CC[C@H](CN(c3cccc(-c4cnn(C(C)(C)C)c4)c3)C(=O)[C@H]3CC[C@H](O)CC3)CC2)cc1C [Compound 5.08, trans-N-(3-(1-(tert-Butyl)-1H-pyrazol-4-yl)phenyl)-4-hydroxy-N-((trans-4-(4-methoxy-3-methylphenyl)cyclohexyl)methyl)cyclohexanecarboxamide]	≤ 250
COc1ccc([C@H]2CC[C@H](CN(c3cc(-c4cnn(C5CC5)c4)ccn3)C(=O)[C@H]3CC[C@H](O)CC3)CC2)nc1C [Compound 5.09, trans-N-(4-(1-Cyclopropyl-1H-pyrazol-4-yl)pyridin-2-yl)-4-hydroxy-N-((trans-4-(5-methoxy-6-methylpyridin-2-yl)cyclohexyl)methyl)cyclohexanecarboxamide]	250 to 1000
COc1ncc([C@H]2CC[C@H](CN(c3cccc(-c4cnn(C5CC5)c4)c3)C(=O)[C@H]3CC[C@H](O)CC3)CC2)cc1Cl [Compound 5.10, trans-N-((trans-4-(5-chloro-6-methoxypyridin-3-yl)cyclohexyl)methyl)-N-(3-(1-cyclopropyl-1H-pyrazol-4-yl)phenyl)-4-hydroxycyclohexanecarboxamide]	≤ 250
COc1ccc([C@H]2CC[C@H](CN(c3cc(-c4cnn(C(C)C)c4)ccn3)C(=O)[C@H]3CC[C@H](O)CC3)CC2)cc1C [Compound 5.11, trans-4-Hydroxy-N-(4-(1-isopropyl-1H-pyrazol-4-yl)pyridin-2-yl)-N-((trans-4-(4-methoxy-3-methylphenyl)cyclohexyl)methyl)cyclohexanecarboxamide]	≤ 250
COc1ncc([C@H]2CC[C@H](CN(c3cccc(-c4cnn(C5CC5)c4)c3)C(=O)[C@H]3CC[C@H](O)CC3)CC2)cc1C [Compound 5.12, trans-N-(3-(1-Cyclopropyl-1H-pyrazol-4-yl)phenyl)-4-hydroxy-N-((trans-4-(6-methoxy-5-methylpyridin-3-yl)cyclohexyl)methyl)cyclohexanecarboxamide]	≤ 250
COc1ccc([C@H]2CC[C@H](CN(c3cc(-c4cnn(C5CC5)c4)ccn3)C(=O)[C@H]3CC[C@H](O)CC3)CC2)cc1C#N [Compound 5.13, trans-N-((trans-4-(3-Cyano-4-methoxyphenyl)cyclohexyl)methyl)-N-(4-(1-cyclopropyl-1H-pyrazol-4-yl)pyridin-2-yl)-4-hydroxycyclohexanecarboxamide]	≤ 250
COc1ccc([C@H]2CC[C@H](CN(c3cc(-c4cnn(C(C)C)c4)ccn3)C(=O)[C@H]3CC[C@H](O)CC3)CC2)cc1C#N [Compound 5.14, trans-N-((trans-4-(3-Cyano-4-methoxyphenyl)cyclohexyl)methyl)-4-hydroxy-N-(4-(1-isopropyl-1H-pyrazol-4-yl)pyridin-2-yl)cyclohexanecarboxamide]	≤ 250
COc1ccc([C@H]2CC[C@H](CN(c3cccc(-c4cnn(C(C)(C)C)c4)c3)C(=O)[C@H]3CC[C@H](O)CC3)CC2)nc1C [Compound 5.15, trans-N-(3-(1-(tert-Butyl)-1H-pyrazol-4-yl)phenyl)-4-hydroxy-N-((trans-4-(5-methoxy-6-methylpyridin-2-yl)cyclohexyl)methyl)cyclohexanecarboxamide]	≤ 250
CCn1cc([C@H]2CC[C@H](CN(c3cccc(-c4cnn(C5CC5)c4)c3)C(=O)[C@H]3CC[C@H](O)CC3)CC2)cn1 [Compound 5.16, trans-N-(3-(1-Cyclopropyl-1H-pyrazol-4-yl)phenyl)-N-((trans-4-(1-ethyl-1H-pyrazol-4-yl)cyclohexyl)methyl)-4-hydroxycyclohexanecarboxamide]	250 to 1000
COc1ccc([C@H]2CC[C@H](CN(c3cccc(-c4cnn(C5CCC5)c4)c3)C(=O)[C@H]3CC[C@H](O)CC3)CC2)nc1C [Compound 5.17, trans-N-(3-(1-Cyclobutyl-1H-pyrazol-4-yl)phenyl)-4-hydroxy-N-((trans-4-(5-methoxy-6-methylpyridin-2-yl)cyclohexyl)methyl)cyclohexanecarboxamide]	≤ 250
COc1cnc([C@H]2CC[C@H](CN(c3cccc(-c4cnn(C5CC5)c4)c3)C(=O)[C@H]3CC[C@H](O)CC3)CC2)cc1C [Compound 5.18, trans-N-(3-(1-Cyclopropyl-1H-pyrazol-4-yl)phenyl)-4-hydroxy-N-((trans-4-(5-methoxy-4-methylpyridin-2-yl)cyclohexyl)methyl)cyclohexanecarboxamide]	250 to 1000

The remaining lines, values ahead:

EC50 [nM]	SMILES
≤ 250	CCC(C)n1cc(-c2cccc(N(C[C@H]3CC[C@H](c4ccc(OC)c(C)c4)CC3)C(=O)[C@H]3CC[C@H](O)CC3)c2)cn1 (stereo partly drawn) [Compound 3.13, trans-N-(3-(1-(sec-Butyl)-1H-pyrazol-4-yl)phenyl)-4-hydroxy-N-((trans-4-(4-methoxy-3-methylphenyl)cyclohexyl)methyl)cyclohexanecarboxamide]
≤ 250	COc1ccc([C@H]2CC[C@H](CN(c3cccc(C#Cc4cnn(C)c4)c3)C(=O)[C@H]3CC[C@H](O)CC3)CC2)cc1C [Compound 4, trans-4-Hydroxy-N-((trans-4-(4-methoxy-3-methylphenyl)cyclohexyl)methyl)-N-(3-((1-methyl-1H-pyrazol-4-yl)ethynyl)phenyl)cyclohexanecarboxamide]
≤ 250	COc1ccc([C@H]2CC[C@H](CN(c3cccc(C#Cc4cn[nH]c4)c3)C(=O)[C@H]3CC[C@H](O)CC3)CC2)cc1C [Compound 4.01, trans-N-(3-((1H-Pyrazol-4-yl)ethynyl)phenyl)-4-hydroxy-N-((trans-4-(4-methoxy-3-methylphenyl)cyclohexyl)methyl)cyclohexanecarboxamide]
≤ 250	COc1ccc([C@H]2CC[C@H](CN(c3cccc(C#Cc4ccn(C)n4)c3)C(=O)[C@H]3CC[C@H](O)CC3)CC2)cc1C [Compound 4.02, trans-4-Hydroxy-N-((trans-4-(4-methoxy-3-methylphenyl)cyclohexyl)methyl)-N-(3-((1-methyl-1H-pyrazol-3-yl)ethynyl)phenyl)cyclohexanecarboxamide]
≤ 250	COc1ccc([C@H]2CC[C@H](CN(c3cccc(C#Cc4cc[nH]n4)c3)C(=O)[C@H]3CC[C@H](O)CC3)CC2)cc1C [Compound 4.03, trans-N-(3-((1H-Pyrazol-3-yl)ethynyl)phenyl)-4-hydroxy-N-((trans-4-(4-methoxy-3-methylphenyl)cyclohexyl)methyl)cyclohexanecarboxamide]
≤ 250	Cn1nc(F)c2cc([C@H]3CC[C@H](CN(c4cccc(-c5cnn(C6CC6)c5)c4)C(=O)[C@H]4CC[C@H](O)CC4)CC3)ccc21 [Compound 5, trans-N-(3-(1-Cyclopropyl-1H-pyrazol-4-yl)phenyl)-N-((trans-4-(3-fluoro-1-methyl-1H-indazol-5-yl)cyclohexyl)methyl)-4-hydroxycyclohexanecarboxamide]
≤ 250	CN(C)c1ccc([C@H]2CC[C@H](CN(c3cccc(-c4cnn(C5CC5)c4)c3)C(=O)[C@H]3CC[C@H](O)CC3)CC2)cn1 [Compound 5.02, trans-N-(3-(1-Cyclopropyl-1H-pyrazol-4-yl)phenyl)-N-((trans-4-(6-(dimethylamino)pyridin-3-yl)cyclohexyl)methyl)-4-hydroxycyclohexanecarboxamide]
≤ 250	COc1ccc([C@H]2CC[C@H](CN(c3cccc(-c4cnn(C5CC5)c4)c3)C(=O)[C@H]3CC[C@H](O)CC3)CC2)cc1Cl [Compound 5.03, trans-N-((trans-4-(3-Chloro-4-methoxyphenyl)cyclohexyl)methyl)-N-(3-(1-cyclopropyl-1H-pyrazol-4-yl)phenyl)-4-hydroxycyclohexanecarboxamide]
≤ 250	COc1ccc([C@H]2CC[C@H](CN(c3cccc(-c4cnn(C5CC5)c4)c3)C(=O)[C@H]3CC[C@H](O)CC3)CC2)nc1C [Compound 5.04, trans-N-(3-(1-cyclopropyl-1H-pyrazol-4-yl)phenyl)-4-hydroxy-N-((trans-4-(5-methoxy-6-methylpyridin-2-yl)cyclohexyl)methyl)cyclohexanecarboxamide]
≤ 250	COc1ccc([C@H]2CC[C@H](CN(c3cccc(-c4cnn(C5CC5)c4)c3)C(=O)[C@H]3CC[C@H](O)CC3)CC2)nc1C#N [Compound 5.05, trans-N-((trans-4-(6-Cyano-5-methoxypyridin-2-yl)cyclohexyl)methyl)-N-(3-(1-cyclopropyl-1H-pyrazol-4-yl)phenyl)-4-hydroxycyclohexanecarboxamide]
≤ 250	O=C([C@H]1CC[C@H](O)CC1)N(C[C@H]1CC[C@H](c2ccc3c(c2)OCO3)CC1)c1cccc(-c2cnn(C3CC3)c2)c1 [Compound 5.06, trans-N-((trans-4-(Benzo[d][1,3]dioxol-5-yl)cyclohexyl)methyl)-N-(3-(1-cyclopropyl-1H-pyrazol-4-yl)phenyl)-4-hydroxycyclohexanecarboxamide]

Source: US10961198B2, “Farnesoid X receptor agonists and uses thereof” (Metacrine, Inc., priority 2017, dated 2021)
